Drawing on patent publication US20080255060A1, “Ester Linked Macrolides Useful For The Treatment of Microbial Infections” (priority 2004, published 2008), this text covers MIC for nine compounds.

Experiment in all cases: MIC, standard microtiter broth serial dilution test
Common to all, as to format: cell-based

Experiment [1] deals with S. aureus Smith ATCC 0329. To be noted: Staphylococcus aureus, ATCC0329.
The test system of experiment [2] is S. pneumoniae 0541. To be noted: Streptococcus pneumoniae.
Experiment [3] deals with S. pyogenes 0542. The note with it: Streptococcus pyogenes.
In experiment [4] the test system is E. faecalis ATCC 0004. The note with it: Enterococcus faecalis, ATCC0004.
Experiment [5] concerns H. influenzae ATCC 0529. The note with it: Haemophilus influenzae, ATCC0529.
Experiment [6] relates to M. catarrhalis ATCC 0324. The note with it: Moraxella catarrhalis, ATCC0324.
Experiment [7] relates to erythromycin resistant strains of Streptococcus pneumoniae.
In experiment [8] the test system is erythromycin resistant strains of Streptococcus pyogenes.

`CCO/N=C1\[C@H](C)C[C@@](C)(O)[C@H](O[C@@H]2O[C@H](C)C[C@H](N(C)C)[C@H]2O)[C@@H](C)[C@H](OC2C[C@@](C)(OC)[C@@H](OC(=O)CCOCCOCCNc3cc4c(=O)c(C(=O)O)cn(C5CC5)c4cc3Cl)[C@H](C)O2)[C@@H](C)C(=O)O[C@H](CC)[C@@](C)(O)[C@H](O)[C@H]1C` (some centres unmarked) [Example 19, 4″-O-(3-{2-[2-(3-Carboxy-7-chloro-1-cyclopropyl-4-oxo-1,4-dihydro-quinolin-6-ylamino)-ethoxy]-ethoxy}-propionyl)-9(E)-ethoxyimino-erythromycin A]: the MIC was ≤ 1 µg/mL in experiment [1]; ≤ 1 µg/mL in experiment [2]; ≤ 1 µg/mL in experiment [3]; ≤ 1 µg/mL in experiment [4]; ≤ 2 µg/mL in experiment [5]; ≤ 2 µg/mL in experiment [6]. For the same compound, the MIC in experiment [7] and in experiment [8] was ≤ 0.25 µg/mL throughout.

Turning to `CC[C@H]1OC(=O)[C@H](C)[C@@H](OC2C[C@@](C)(OC)[C@@H](OC(=O)CCNCCOCCCc3ccc4c(c3)c(=O)c(C(=O)O)cn4CC)[C@H](C)O2)[C@H](C)[C@@H](OC2O[C@H](C)C[C@H](N(C)C)[C@H]2O)[C@](C)(OC)C[C@@H](C)C(=O)[C@H](C)[C@@H](O)[C@]1(C)O` (some centres unmarked) [Example 37, 4″-O-(3-{2-[3-(3-Carboxy-1-ethyl-4-oxo-1,4-dihydro-quinolin-6-yl)-propoxy]-ethylamino}-propionyl)-6-O-methyl-erythromycin A], the MIC in experiment [1] was ≤ 1 µg/mL; in experiment [2], ≤ 1 µg/mL; in experiment [3], ≤ 1 µg/mL; in experiment [4] it was ≤ 1 µg/mL; in experiment [5], ≤ 2 µg/mL; in experiment [6], ≤ 2 µg/mL. Further, the MIC in experiment [7] and in experiment [8] was ≤ 0.25 µg/mL in each case.

Consider `CC[C@H]1OC(=O)[C@H](C)[C@@H](O[C@H]2C[C@@](C)(OC)[C@@H](OC(=O)CCNCCOCCOCCNc3cc4c(=O)c(C(=O)O)cn(C5CC5)c4cc3Cl)[C@H](C)O2)[C@H](C)[C@@H](O[C@@H]2O[C@H](C)C[C@H](N(C)C)[C@H]2O)[C@](C)(O)C[C@@H](C)CN(C)[C@H](C)[C@@H](O)[C@]1(C)O` [Example 65, 4″-O-[3-(2-{2-[2-(3-Carboxy-7-chloro-1-cyclopropyl-4-oxo-1,4-dihydro-quinolin-6-ylamino)-ethoxy]-ethoxy}-ethylamino)-propionyl]-azithromycin], for which the MIC in experiment [1] is ≤ 1 µg/mL; in experiment [2], ≤ 1 µg/mL; in experiment [3] it was ≤ 1 µg/mL; in experiment [4], ≤ 1 µg/mL; in experiment [5], ≤ 2 µg/mL; in experiment [6], ≤ 2 µg/mL. In addition, the MIC in experiment [7] and in experiment [8] was ≤ 0.25 µg/mL in each case.

For the compound `CC[C@H]1OC(=O)[C@H](C)[C@@H](O[C@H]2C[C@@](C)(OC)[C@@H](OC(=O)CCOCCOCCNc3cc4c(=O)c(C(=O)O)cn(C5CC5)c4cc3Cl)[C@H](C)O2)[C@H](C)[C@@H](O[C@@H]2O[C@H](C)C[C@H](N(C)C)[C@H]2O)[C@](C)(O)C[C@@H](C)/C(=N\OCOCCOC)[C@H](C)[C@@H](O)[C@]1(C)O` [Example 6, 4″-O-(3-{2-[2-(3-Carboxy-7-chloro-1-cyclopropyl-4-oxo-1,4-dihydro-quinolin-6-ylamino)-ethoxy]-ethoxy}-propionyl)-roxythromycin], the MIC in experiment [1] is ≤ 1 µg/mL; in experiment [2] it was ≤ 1 µg/mL; in experiment [3] it was ≤ 1 µg/mL; in experiment [4] it was ≤ 1 µg/mL; in experiment [7] it was ≤ 0.25 µg/mL; in experiment [8], ≤ 0.25 µg/mL.

Turning to `CCO/N=C1\[C@H](C)C[C@@](C)(O)[C@H](OC2O[C@H](C)C[C@H](N(C)C)[C@H]2O)[C@@H](C)[C@H](OC2C[C@@](C)(OC)[C@@H](OC(=O)CCOCCOCCCc3ccc4c(c3)c(=O)c(C(=O)O)cn4CC)[C@H](C)O2)[C@@H](C)C(=O)O[C@H](CC)[C@@](C)(O)[C@H](O)[C@H]1C` (some centres unmarked) [Example 52, 9-Ethyloximino-4″-O-(3-{2-[3-(3-carboxy-1-ethyl-4-oxo-1,4-dihydro-quinolin-6-yl)-propoxy]-ethoxy}-propionyl)-erythromycin A], the MIC in experiment [7] and in experiment [8] was ≤ 0.25 µg/mL each time.

As for `CC[C@H]1OC(=O)[C@H](C)[C@@H](OC2C[C@@](C)(OC)[C@@H](OC(=O)CCNCCOCC#Cc3ccc4c(c3)c(=O)c(C(=O)O)cn4CC)[C@H](C)O2)[C@H](C)[C@@H](OC2O[C@H](C)C[C@H](N(C)C)[C@H]2O)[C@](C)(OC)C[C@@H](C)C(=O)[C@H](C)[C@@H](O)[C@]1(C)O` (some centres unmarked) [Example 36, 4″-O-(3-{2-[3-(3-carboxy-1-ethyl-4-oxo-1,4-dihydro-quinolin-6-yl)-prop-2-ynyloxy]-ethylamino}-propionyl)-6-O-methyl-erythromycin A], the MIC in experiment [1] was ≤ 1 µg/mL; in experiment [2], ≤ 1 µg/mL; in experiment [3] it was ≤ 1 µg/mL; in experiment [4], ≤ 1 µg/mL; in experiment [5] it was ≤ 2 µg/mL; in experiment [6], ≤ 2 µg/mL.

On to `CC[C@H]1OC(=O)[C@H](C)[C@@H](OC2C[C@@](C)(OC)[C@@H](OC(=O)CCOCCOCCOc3ccc4c(=O)c(C(=O)O)cn(C5CC5)c4c3)[C@H](C)O2)[C@H](C)[C@@H](OC2O[C@H](C)C[C@H](N(C)C)[C@H]2O)[C@](C)(O)C[C@@H](C)CN(C)[C@H](C)[C@@H](O)[C@]1(C)O` (some centres unmarked) [Example 35, 4″-O-(3-{2-[2-(3-Carboxy-1-cyclopropyl-4-oxo-1,4-dihydro-quinolin-7-yloxy)-ethoxy]-ethoxy}-propionyl)-azithromycin], for which the MIC in experiment [1] was ≤ 1 µg/mL; in experiment [2], ≤ 1 µg/mL; in experiment [3], ≤ 1 µg/mL; in experiment [4], ≤ 1 µg/mL; in experiment [5] it was ≤ 2 µg/mL; in experiment [6] it was ≤ 2 µg/mL.

On to `CC[C@H]1OC(=O)[C@H](C)[C@@H](O[C@H]2C[C@@](C)(OC)[C@@H](OC(=O)CCOCCOCCNc3cc4c(cc3F)c(=O)c(C(=O)O)cn4C3CC3)[C@H](C)O2)[C@H](C)[C@@H](O[C@@H]2O[C@H](C)C[C@H](N(C)C)[C@H]2O)[C@](C)(OC)C[C@@H](C)C(=O)[C@H](C)[C@@H](O)[C@]1(C)O` [Example 27, 4″-O-(3-{2-[2-(3-Carboxy-6-fluoro-1-cyclopropyl-4-oxo-1,4-dihydro-quinolin-7-ylamino)-ethoxy]-ethoxy}-propionyl)-6-O-methyl-erythromycin A], for which the MIC in experiment [1] is ≤ 1 µg/mL; in experiment [2] it was ≤ 1 µg/mL; in experiment [3] it was ≤ 1 µg/mL; in experiment [4], ≤ 1 µg/mL; in experiment [5], ≤ 2 µg/mL; in experiment [6], ≤ 2 µg/mL.

Take `CC[C@H]1OC(=O)[C@H](C)[C@@H](OC2C[C@@](C)(OC)[C@@H](OC(=O)CCNCCOCCCc3ccc4c(c3)c(=O)c(C(=O)O)cn4CC)[C@H](C)O2)[C@H](C)[C@@H](OC2O[C@H](C)C[C@H](N(C)C)[C@H]2O)[C@](C)(O)C[C@@H](C)CN(C)[C@H](C)[C@@H](OC)[C@]1(C)O` (some centres unmarked) [Example 24, 11-O-Methyl-4″-O-(3-{2-[3-(3-Carboxy-1-ethyl-4-oxo-1,4-dihydro-quinolin-6-yl)-propoxy]-ethylamino}-propionyl)-azithromycin]: the MIC in experiment [1] is ≤ 1 µg/mL; in experiment [2], ≤ 1 µg/mL; in experiment [3] it was ≤ 1 µg/mL; in experiment [4], ≤ 1 µg/mL; in experiment [5], ≤ 2 µg/mL; in experiment [6] it was ≤ 2 µg/mL.
